Experimental data from PubChem BioAssay (NCI).
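1) Cells in 96-well plates. 2) Compound, 48 h, 5 concentrations. 3) Linear interpolation between surrounding doses. 4) Unreached endpoint = highest concentration. GI50: concentration for 50% inhibition of growth. TGI: concentration producing complete growth inhibition.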

Key:
Experiment in all cases: NCI tumour cell line growth inhibition, 48 h
SF-295 CNS = system: SF-295 CNS
CAKI-1 renal = system: CAKI-1 renal
HCT-15 colon = system: HCT-15 colon
TK-10 renal = system: TK-10 renal
ACHN renal = system: ACHN renal
HT29 colon = system: HT29 colon
HL-60(TB) leukemia = system: HL-60(TB) leukemia
LOX IMVI melanoma = system: LOX IMVI melanoma
UACC-62 melanoma = system: UACC-62 melanoma
HOP-92 NSCLC = system: HOP-92 NSCLC
SK-MEL-5 melanoma = system: SK-MEL-5 melanoma
NCI-H23 lung = system: NCI-H23 lung
CCRF-CEM leukemia = system: CCRF-CEM leukemia
MDA-MB-468 breast = system: MDA-MB-468 breast
SK-MEL-2 melanoma = system: SK-MEL-2 melanoma
M14 melanoma = system: M14 melanoma
RPMI-8226 leukemia = system: RPMI-8226 leukemia
HCT-116 colon = system: HCT-116 colon
SK-OV-3 ovarian = system: SK-OV-3 ovarian
SNB-19 CNS = system: SNB-19 CNS
SK-MEL-28 melanoma = system: SK-MEL-28 melanoma
A498 renal = system: A498 renal
786-0 renal = system: 786-0 renal
SR leukemia = system: SR leukemia
OVCAR-8 ovarian = system: OVCAR-8 ovarian
SW-620 colon = system: SW-620 colon
RXF 393 renal = system: RXF 393 renal
A549 NSCLC = system: A549 NSCLC
K-562 leukemia = system: K-562 leukemia
NCI-H522 lung = system: NCI-H522 lung
U251 CNS = system: U251 CNS
OVCAR-4 ovarian = system: OVCAR-4 ovarian
MDA-MB-435 = system: MDA-MB-435
MCF7 breast = system: MCF7 breast
EKVX NSCLC = system: EKVX NSCLC
OVCAR-3 ovarian = system: OVCAR-3 ovarian
MDA-MB-231 breast = system: MDA-MB-231 breast
UO-31 renal = system: UO-31 renal
PC-3 prostate = system: PC-3 prostate
SF-539 CNS = system: SF-539 CNS
IGROV1 ovarian = system: IGROV1 ovarian
DU-145 prostate = system: DU-145 prostate
HCC-2998 colon = system: HCC-2998 colon
NCI-H226 lung = system: NCI-H226 lung
SN12C renal = system: SN12C renal
COLO 205 colon = system: COLO 205 colon
SF-268 CNS = system: SF-268 CNS
MALME-3M melanoma = system: MALME-3M melanoma
NCI/ADR-RES ovarian = system: NCI/ADR-RES ovarian
NCI-H460 lung = system: NCI-H460 lung
HS 578T breast = system: HS 578T breast
MOLT-4 leukemia = system: MOLT-4 leukemia
KM12 colon = system: KM12 colon
HOP-62 NSCLC = system: HOP-62 NSCLC
OVCAR-5 ovarian = system: OVCAR-5 ovarian
UACC-257 melanoma = system: UACC-257 melanoma
SNB-75 CNS = system: SNB-75 CNS
BT-549 breast = system: BT-549 breast
T-47D breast = system: T-47D breast

Compound: O=C(CNc1nc(-c2ccccc2)cs1)Nc1cccc(Cl)c1
- GI50 (SF-295 CNS): 5.13 µM
- TGI (SF-295 CNS): 18.1 µM
- GI50 (CAKI-1 renal): 3.13 µM
- TGI (CAKI-1 renal): 42.9 µM
- GI50 (HCT-15 colon): 4.49 µM
- TGI (HCT-15 colon): 16.1 µM
- GI50 (TK-10 renal): 14.9 µM
- TGI (TK-10 renal): 29.7 µM
- GI50 (ACHN renal): 6.57 µM
- TGI (ACHN renal): 19.8 µM
- GI50 (HT29 colon): 10.1 µM
- TGI (HT29 colon): 24 µM
- GI50 (HL-60(TB) leukemia): 3.53 µM
- TGI (HL-60(TB) leukemia): 23.1 µM
- GI50 (LOX IMVI melanoma): 3.31 µM
- TGI (LOX IMVI melanoma): 16.4 µM
- GI50 (UACC-62 melanoma): 3.33 µM
- TGI (UACC-62 melanoma): 16.6 µM
- GI50 (HOP-92 NSCLC): 2.37 µM
- TGI (HOP-92 NSCLC): 15.1 µM
- GI50 (SK-MEL-5 melanoma): 7.04 µM
- TGI (SK-MEL-5 melanoma): 19.8 µM
- GI50 (NCI-H23 lung): 9.24 µM
- TGI (NCI-H23 lung): 22.8 µM
- GI50 (CCRF-CEM leukemia): 3.76 µM
- TGI (CCRF-CEM leukemia): > 100 µM
- GI50 (MDA-MB-468 breast): 4.01 µM
- TGI (MDA-MB-468 breast): 13.5 µM
- GI50 (SK-MEL-2 melanoma): 11.8 µM
- TGI (SK-MEL-2 melanoma): 26 µM
- GI50 (M14 melanoma): 10.4 µM
- TGI (M14 melanoma): 42.3 µM
- GI50 (RPMI-8226 leukemia): 4.61 µM
- TGI (RPMI-8226 leukemia): > 100 µM
- GI50 (HCT-116 colon): 4.99 µM
- TGI (HCT-116 colon): 34.1 µM
- GI50 (SK-OV-3 ovarian): 14.1 µM
- TGI (SK-OV-3 ovarian): 44.9 µM
- GI50 (SNB-19 CNS): 11 µM
- TGI (SNB-19 CNS): 28 µM
- GI50 (SK-MEL-28 melanoma): 13 µM
- TGI (SK-MEL-28 melanoma): 25.9 µM
- GI50 (A498 renal): 11.5 µM
- TGI (A498 renal): 33.5 µM
- GI50 (786-0 renal): 13.1 µM
- TGI (786-0 renal): 38.3 µM
- GI50 (SR leukemia): 3.94 µM
- TGI (SR leukemia): > 100 µM
- GI50 (OVCAR-8 ovarian): 7.2 µM
- TGI (OVCAR-8 ovarian): 74.6 µM
- GI50 (SW-620 colon): 12.1 µM
- TGI (SW-620 colon): 30.3 µM
- GI50 (RXF 393 renal): 5.39 µM
- TGI (RXF 393 renal): 18.4 µM
- GI50 (A549 NSCLC): 9.22 µM
- TGI (A549 NSCLC): 62.4 µM
- GI50 (K-562 leukemia): 3.84 µM
- TGI (K-562 leukemia): 26 µM
- GI50 (NCI-H522 lung): 4.01 µM
- TGI (NCI-H522 lung): 16.1 µM
- GI50 (U251 CNS): 5.15 µM
- TGI (U251 CNS): 19.5 µM
- GI50 (OVCAR-4 ovarian): 6.4 µM
- TGI (OVCAR-4 ovarian): 20.9 µM
- GI50 (MDA-MB-435): 12.5 µM
- TGI (MDA-MB-435): 33.5 µM
- GI50 (MCF7 breast): 5.42 µM
- TGI (MCF7 breast): 18.3 µM
- GI50 (EKVX NSCLC): 3.59 µM
- TGI (EKVX NSCLC): 15.3 µM
- GI50 (OVCAR-3 ovarian): 7.14 µM
- TGI (OVCAR-3 ovarian): 21.5 µM
- GI50 (MDA-MB-231 breast): 4.03 µM
- TGI (MDA-MB-231 breast): 17.8 µM
- GI50 (UO-31 renal): 2.41 µM
- TGI (UO-31 renal): 14.8 µM
- GI50 (PC-3 prostate): 2.86 µM
- TGI (PC-3 prostate): 37.6 µM
- GI50 (SF-539 CNS): 11.2 µM
- TGI (SF-539 CNS): 23.3 µM
- GI50 (IGROV1 ovarian): 5.27 µM
- TGI (IGROV1 ovarian): 21.5 µM
- GI50 (DU-145 prostate): 15.2 µM
- TGI (DU-145 prostate): 37.2 µM
- GI50 (HCC-2998 colon): 11.2 µM
- TGI (HCC-2998 colon): 23.2 µM
- GI50 (NCI-H226 lung): 10.1 µM
- TGI (NCI-H226 lung): 45.4 µM
- GI50 (SN12C renal): 6.3 µM
- TGI (SN12C renal): 20.7 µM
- GI50 (COLO 205 colon): 15.6 µM
- TGI (COLO 205 colon): 36.5 µM
- GI50 (SF-268 CNS): 7.45 µM
- TGI (SF-268 CNS): 52.3 µM
- GI50 (MALME-3M melanoma): 15 µM
- TGI (MALME-3M melanoma): 28.3 µM
- GI50 (NCI/ADR-RES ovarian): 6.39 µM
- TGI (NCI/ADR-RES ovarian): 45.3 µM
- GI50 (NCI-H460 lung): 10.1 µM
- TGI (NCI-H460 lung): 28.6 µM
- GI50 (HS 578T breast): 7.94 µM
- TGI (HS 578T breast): > 100 µM
- GI50 (MOLT-4 leukemia): 3.22 µM
- TGI (MOLT-4 leukemia): 15.9 µM
- GI50 (KM12 colon): 6.33 µM
- TGI (KM12 colon): 22.5 µM
- GI50 (HOP-62 NSCLC): 12.6 µM
- TGI (HOP-62 NSCLC): 36 µM
- GI50 (OVCAR-5 ovarian): 13 µM
- TGI (OVCAR-5 ovarian): 25.7 µM
- GI50 (UACC-257 melanoma): 13 µM
- TGI (UACC-257 melanoma): 26.9 µM
- GI50 (SNB-75 CNS): 3.22 µM
- TGI (SNB-75 CNS): 19.7 µM
- GI50 (BT-549 breast): 4.82 µM
- TGI (BT-549 breast): 19 µM
- GI50 (T-47D breast): 6.04 µM
- TGI (T-47D breast): 22.6 µM
